Patent publication US20250032454A1, “KDM1A INHIBITORS FOR THE TREATMENT OF DISEASE” (Imago Biosciences, Inc., priority 2021, published 2025)

The molecules below were run against LSD1 (Homo sapiens, UniProt O60341) (assay: LSD1 fluorescence coupling enzyme assay (HRP/Amplex Red, H3(1-21)K4me2 peptide), 10-dose IC50). Details: 10 μM histone H3(1-21)K4me2 peptide substrate, 3-fold serial dilution from 100 μM.
Assay type: biochemical
Description: Assaying the inhibition of KDM1A can be determined in vitro, in cultured cells, and in animals. There are a variety of spectrophotometric methods to detect the results of demethylation of methylated lysines, viz., detecting the products of KDM1A demethylase oxidative activity on a peptide fragment of at least 18 amino acids representing the N-terminus of the histone H3 substrate that contains a monomethyl at the fourth lysine residue. Hydrogen peroxide, one product of the KDM1A demethylase reaction, reacts with horseradish peroxidase and dihydroxyphenoxazine (ADHP) to produce the fluorescent compound resorufin (excitation=530-560 nm: emission=590 nm). The KDM1A demethylase enzyme activity can be obtained from mammalian cells or tissues expressing KDM1A from an endogenous or recombinant gene and purified or assayed from a whole cell extract. These methods can be used to determine the concentration of the disclosed compounds can inhibit fifty percent of the enzyme activity (IC50).
Alternatively, the production of H2O2 during the KDM1A reaction can be detected fluometrically. In this system, the production of H2O2 is detected in the HDM assay buffer after exposure to substrate, co-factor and enzyme using ADHP (10-Acetyl-3, 7-dihydroxyphenoxazine) as a fluorogenic substrate for horse radish peroxidase (HRP). […] The florescent product is resorufin. Sensitivity can be as low as 10-15 M of target protein. The signal is read using a fluorescence microplate reader at excitation and emission wavelengths of 530-560 nm and 590 nm, respectively.
Compounds were tested in a 10-dose IC50 mode fluorescence coupling enzyme assay with 3-fold serial dilution in duplicate starting at 100 μM. The production of FAD-dependent H2O2 as a result of demethylase activity of LSD1 on 10 μM histone H3(1-21)K4me2 peptide substrate was measured by coupling with HRP and Amplex Red to yield resorufin (fluorescence measured at Ex/Em=535/590 nm on EnVision, Perkin Elmer).
`CC(C)Oc1cc(N2CCS(=O)(=O)CC2)ccc1-n1nc(NCC23CCN(CC2)CC3)cc1-c1ccc(C#N)c(F)c1` [Example 122, 4-(1-(4-(1,1-Dioxidothiomorpholino)-2-isopropoxyphenyl)-3-((quinuclidin-4-ylmethyl)amino)-1H-pyrazol-5-yl)-2-fluorobenzonitrile 2,2,2-trifluoroacetate] gave an IC50 of 1000 to 10000 nM.
In the case of `COc1ccc(-n2nc(NC[C@@H]3CCC[C@H](CN)C3)cc2-c2ccc(C#N)c(F)c2)cc1` [Example 79, 4-(3-((((1R,3S)-3-(aminomethyl)cyclohexyl)methyl)amino)-1-(4-methoxyphenyl)-1H-pyrazol-5-yl)-2-fluorobenzonitrile], the IC50 is reported as 1000 to 10000 nM.
With `COc1cc(N2CCC(OC)CC2)ccc1-n1nc(NC[C@H]2CCC[C@H](N)C2)cc1-c1ccc(C#N)c(F)c1` [Example 114, 4-(3-((((1S,3S)-3-aminocyclohexyl)methyl)amino)-1-(2-methoxy-4-(4-methoxypiperidin-1-yl)phenyl)-1H-pyrazol-5-yl)-2-fluorobenzonitrile 2,2,2-trifluoroacetate] the IC50 was < 500 nM.
With `N#Cc1ccc(-c2cc(NCC3CCCNCC3)nn2-c2ccc(N3CC[S+]([O-])CC3)cc2)cc1F` (centres unmarked) [Example 90, 4-(3-((Azepan-4-ylmethyl)amino)-1-(4-(1-oxidothiomorpholino)phenyl)-1H-pyrazol-5-yl)-2-fluorobenzonitrile 2,2,2-trifluoroacetate] the IC50 was < 500 nM.
`COc1ccc(-n2nc(NC[C@H]3CCC[C@H](CN)C3)cc2-c2ccc(C#N)c(F)c2)cc1` [Example 80, 4-(3-((((15,3S)-3-(aminomethyl)cyclohexyl)methyl)amino)-1-(4-methoxyphenyl)-1H-pyrazol-5-yl)-2-fluorobenzonitrile] gave an IC50 of 500 to 1000 nM.
`N#Cc1ccc(-c2cc(NC[C@@H]3CCCNCC3)nn2-c2ccc(N3CCS(=O)(=O)CC3)c(F)c2)cc1F` [Example 111, (R)-4-(3-((azepan-4-ylmethyl)amino)-1-(4-(1,1-dioxidothiomorpholino)-3-fluorophenyl)-1H-pyrazol-5-yl)-2-fluorobenzonitrile 2,2,2-trifluoroacetate] was tested, and the IC50 was < 500 nM.
In the case of `N#Cc1ccc(-c2cc(NC[C@H]3CCC[C@H](N)C3)nn2-c2ccc(N3CCC(C#N)CC3)cc2)cc1F` [Example 103, 1-(4-(3-((((1S,3S)-3-aminocyclohexyl)methyl)amino)-5-(4-cyano-3-fluorophenyl)-1H-pyrazol-1-yl)phenyl)piperidine-4-carbonitrile 2,2,2-trifluoroacetate], the IC50 is reported as < 500 nM.
With `N#Cc1ccc(-c2cc(NC[C@H]3CCC[C@H](N)C3)nn2-c2ccc(N3CCC4(CCCO4)CC3)cc2)cc1F` [Example 95, 4-(1-(4-(1-Oxa-8-azaspiro[4.5]decan-8-yl)phenyl)-3-((((1S,3S)-3-aminocyclohexyl)methyl)amino)-1H-pyrazol-5-yl)-2-fluorobenzonitrile 2,2,2-trifluoroacetate] the IC50 was < 500 nM.
In the case of `N#Cc1ccc(-c2cc(NCC3CCCNCC3)nn2-c2ccc(N3CCS(=O)(=O)CC3)c(F)c2)cc1F` (centres unmarked) [Example 110, 4-(3-((azepan-4-ylmethyl)amino)-1-(4-(1,1-dioxidothiomorpholino)-3-fluorophenyl)-1H-pyrazol-5-yl)-2-fluorobenzonitrile 2,2,2-trifluoroacetate], the IC50 is reported as < 500 nM.
For `COC1CCN(c2ccc(-n3nc(NCC45CCN(CC4)CC5)cc3-c3ccc(C#N)c(F)c3)cc2)CC1` [Example 124, 2-Fluoro-4-(1-(4-(4-methoxypiperidin-1-yl)phenyl)-3-((quinuclidin-4-ylmethyl)amino)-1H-pyrazol-5-yl)benzo-nitrile 2,2,2-trifluoroacetate], the IC50 was < 500 nM.
In the case of `COC1(C)CCN(c2ccc(-n3nc(NC[C@H]4CCC[C@H](N)C4)cc3-c3ccc(C#N)c(F)c3)cc2)CC1` [Example 102, 4-(3-((((1S,3S)-3-aminocyclohexyl)methyl)amino)-1-(4-(4-methoxy-4-methylpiperidin-1-yl)phenyl)-1H-pyrazol-5-yl)-2-fluorobenzonitrile 2,2,2-trifluoroacetate], the IC50 is reported as < 500 nM.
With `N#Cc1ccc(-c2cc(NCC3CNCCO3)nn2-c2ccc(N3CCS(=O)(=O)CC3)cc2F)cc1F` (centres unmarked) [Example 108, 4-(1-(4-(1,1-dioxidothiomorpholino)-2-fluorophenyl)-3-((morpholin-2-ylmethyl)amino)-1H-pyrazol-5-yl)-2-fluorobenzonitrile 2,2,2-trifluoroacetate] the IC50 was < 500 nM.
For `CCOC1CCN(c2ccc(-n3nc(NC[C@H]4CCC[C@H](N)C4)cc3-c3ccc(C#N)c(F)c3)cc2)CC1` [Example 97, 4-(3-((((1S,3S)-3-aminocyclohexyl)methyl)amino)-1-(4-(4-ethoxypiperidin-1-yl)phenyl)-1H-pyrazol-5-yl)-2-fluorobenzonitrile 2,2,2-trifluoroacetate], the IC50 was < 500 nM.
In the case of `N#Cc1ccc(-c2cc(NC[C@@H]3CCC[C@@H](N)C3)nn2-c2ccc(N3CCSCC3)cc2)cc1F` [Example 100, 4-(3-((((1R,3R)-3-aminocyclohexyl)methyl)amino)-1-(4-thiomorpholinophenyl)-1H-pyrazol-5-yl)-2-fluorobenzonitrile], the IC50 is reported as < 500 nM.
`COC1CCN(c2cccc(-n3nc(NC[C@H]4CCC[C@H](N)C4)cc3-c3ccc(C#N)c(F)c3)c2)CC1` [Example 118, 4-(3-((((1S,3S)-3-aminocyclohexyl)methyl)amino)-1-(3-(4-methoxypiperidin-1-yl)phenyl)-1H-pyrazol-5-yl)-2-fluorobenzonitrile 2,2,2-trifluoroacetate] gave an IC50 of 1000 to 10000 nM.
With `COC1CCN(c2ccc(-n3nc(NC[C@H]4CCC[C@H](NC(=N)N)C4)cc3-c3ccc(C#N)c(F)c3)cc2)CC1` [Example 128, 1-((1S,3S)-3-(((5-(4-cyano-3-fluorophenyl)-1-(4-(4-methoxypiperidin-1-yl)phenyl)-1H-pyrazol-3-yl)amino)methyl)cyclohexyl)guanidine] the IC50 was < 500 nM.
For `N#Cc1ccc(-c2cc(NC[C@H]3CCC[C@H](N)C3)nn2-c2ccc(N3CCSCC3)cc2)cc1F` [Example 99, 4-(3-((((1S,3S)-3-aminocyclohexyl)methyl)amino)-1-(4-thiomorpholinophenyl)-1H-pyrazol-5-yl)-2-fluorobenzonitrile], the IC50 was < 500 nM.
In the case of `N#Cc1ccc(-c2cc(NC[C@@H]3CCCNCC3)nn2-c2ccc(N3CC[S+]([O-])CC3)cc2)cc1F` [Example 91, (R)-4-(3-((azepan-4-ylmethyl)amino)-1-(4-(1-oxidothiomorpholino)phenyl)-1H-pyrazol-5-yl)-2-fluorobenzonitrile 2,2,2-trifluoroacetate], the IC50 is reported as < 500 nM.
`CC1(O)CCN(c2ccc(-n3nc(NC[C@H]4CCC[C@H](N)C4)cc3-c3ccc(C#N)c(F)c3)cc2)CC1` [Example 101, 4-(3-((((1S,3S)-3-aminocyclohexyl)methyl)amino)-1-(4-(4-hydroxy-4-methylpiperidin-1-yl)phenyl)-1H-pyrazol-5-yl)-2-fluorobenzonitrile 2,2,2-trifluoroacetate] was tested, and the IC50 was < 500 nM.
`COc1cc(N2CCS(=O)(=O)CC2)ccc1-n1nc(NCC23CCN(CC2)CC3)cc1-c1ccc(C#N)c(F)c1` [Example 126, 4-(1-(4-(1,1-Dioxidothiomorpholino)-2-methoxyphenyl)-3-((quinuclidin-4-ylmethyl)amino)-1H-pyrazol-5-yl)-2-fluorobenzonitrile 2,2,2-trifluoroacetate] was tested, and the IC50 was < 500 nM.
In the case of `N#Cc1ccc(-c2cc(NC[C@H]3CCC[C@H](N)C3)nn2-c2ccc(N3CCNC(=O)C3)cc2)cc1F` [Example 104, 4-(3-((((1S,3S)-3-aminocyclohexyl)methyl)amino)-1-(4-(3-oxopiperazin-1-yl)phenyl)-1H-pyrazol-5-yl)-2-fluorobenzonitrile], the IC50 is reported as < 500 nM.

These molecules were tested on MV4;11 cells (assay: Cell Titer-Glo cell growth inhibition in MV4;11 cell line (Day 5 / Day 10)). Details: Homo sapiens, MV4-11, 120 h, Day 5, read-out: Cell Titer-Glo IC50 (5 d).
Assay type: cell-based
Protocol: Cell growth inhibition against MV4;11 cells was confirmed for the synthetic compounds. The Cell Titer-Glo Luminescent Cell Viability Assay (Promega, USA) was used to determine the number of viable cells in culture based on quantitation of the ATP present, which signals the presence of metabolically active cells. This assay was run in a 96-well plate format arrayed in a 10-point dose curve, ranging from 0 to 50 µM with 4-fold dilutions for each compound. Cells are seeded on Day 0 at 3750 cells per well. At Day 5, a portion of each well is assayed for viability according to the Cell Titer-Glo protocol. Briefly, cells/plates were centrifuged at 1100×g for 5 minutes. 100 μL of media was removed from each well and replaced with 100 μL of CellTiter-Glo. The plates were shaken at room temperature for 10 minutes and measured on a luminescence plate reader. Another portion of each well from the Day 5 plate is used to seed a new 96 plate containing fresh compound and media set up in the equivalent 10-point dose curve array in order to continue the cell growth inhibition assay for another 5 days. A final timepoint is collected at Day 10 using the Cell Titer-Glo protocol. Luminescence was detected on an En Vision® Multilabel Plate Reader (Perkin Elmer, Waltham, Mass.) and IC50 determination was made using Graph Pad Prism software.
Molecule `N#Cc1ccc(-c2cc(NCC3CCC[C@H](N)C3)nn2-c2ccc3nn(-c4ccncc4)cc3c2)cc1F` (stereo partly drawn) [Example 75, 4-(3-((((15,3S)-3-aminocyclohexyl)methyl)amino)-1-(2-(pyridin-4-yl)-2H-indazol-5-yl)-1H-pyrazol-5-yl)-2-fluorobenzonitrile] has an IC50 of 500 to 1000 nM.

Same assay, conditions: Homo sapiens, MV4-11, 240 h, Day 10, read-out: Cell Titer-Glo IC50 (10 d)
`N#Cc1ccc(-c2cc(NCC3CCC[C@H](N)C3)nn2-c2ccc3nn(-c4ccncc4)cc3c2)cc1F` (stereo partly drawn) [Example 75, 4-(3-((((15,3S)-3-aminocyclohexyl)methyl)amino)-1-(2-(pyridin-4-yl)-2H-indazol-5-yl)-1H-pyrazol-5-yl)-2-fluorobenzonitrile] was tested, and the IC50 was < 500 nM.
